Literature values, collected in patent US20100130406A1, “GLYCATED MILK AND USES THEREOF” (SOMNACEUTICS LIMITED, priority 2007, published 2010).

Experiments:
[1] = system: humans
[2] = system: cockroaches
[3] = normal (non-glycated) peptide
[4] = system: chickens
[5] = system: rats

## COc1ccc2[nH]cc(CCNC(C)=O)c2c1 [Melatonin]
[1]
  quantity having a soporific effect for some people: 3 to 5 mg

## beta-casomorphin-7
[2]
  sedative and anxiolytic effects: sedative and anxiolytic effects
[3]
  half-life in the circulation: about a few minutes
[4]
  sedative and anxiolytic effects: sedative and anxiolytic effects
[5]
  sedative and anxiolytic effects: sedative and anxiolytic effects

## N[C@@H](Cc1c[nH]c2ccccc12)C(=O)O [1-tryptophane]
[1]
  quantity required for a soporific effect: about 1 g
